Test results from patent publication US12312370B2, “Immunoproteasome inhibitors” (Principia Biopharma Inc., priority 2017, dated 2025).

How the values were obtained:
[1] = molecular target: immunoproteasome LMP7/B5i subunit (Homo sapiens, UniProt P28062); test: Caliper-based proteasome enzymatic activity assay, LMP7; type: biochemical; conditions: human recombinant immunoproteasome 0.3 nM, FAM-labeled peptide substrate 1 μM, rt 3 h; read-out: LMP7 subunit IC50
[2] = molecular target: constitutive proteasome β5c unit (Homo sapiens, UniProt P28074); test: Caliper-based proteasome enzymatic activity assay, β5c; type: biochemical; conditions: human recombinant constitutive proteasome 0.3 nM, FAM-labeled peptide substrate 1 μM, rt 3 h; read-out: β5c subunit IC50

Compound | IC50 [1] | IC50 [2]
CC(C)(C=C(C#N)C(=O)N1CCC[C@H](OC(=O)N[C@@H](Cc2ccccc2)B(O)O)C1)N1CCN2C(=O)OC[C@@H]2C1 [Example 97, ((R)-1-(((((S)-1-(2-cyano-4-methyl-4-((S)-3-oxotetrahydro-3H-oxazolo[3,4-a]pyrazin-7(1H)-yl)pent-2-enoyl)piperidin-3-yl)oxy)carbonyl)amino)-2-phenylethyl)boronic acid] | 0.0077 µM | 1.95 µM
CC(C)(C=C(C#N)C(=O)N1CC[C@@H](OC(=O)N[C@@H](Cc2ccccc2)B(O)O)C1)N1CCC(F)(F)C1 [Example 90, ((R)-1-(((((R)-1-(2-cyano-4-(3,3-difluoropyrrolidin-1-yl)-4-methylpent-2-enoyl)pyrrolidin-3-yl)oxy)carbonyl)amino)-2-phenylethyl)boronic acid] | 0.0032 µM | 1.59 µM
CC(C)(C=C(C#N)C(=O)N1CCC[C@H](OC(=O)N[C@@H](CC2=CCCC2)B(O)O)C1)N1CCC(F)(F)C1 [Example 117, ((R)-1-(((((S)-1-(2-cyano-4-(3,3-difluoropyrrolidin-1-yl)-4-methylpent-2-enoyl)piperidin-3-yl)oxy)carbonyl)amino)-2-(cyclopent-1-en-1-yl)ethyl)boronic acid] | 0.0043 µM | > 5 µM
C=CS(=O)(=O)N(C)c1cccc(C[C@H](NC(=O)c2cc(Cl)ccc2Cl)C(=O)N[C@@H](Cc2ccccc2)B(O)O)c1 [Example 16, ((R)-1-((S)-2-(2,5-dichlorobenzamido)-3-(3-(N-methylvinylsulfonamido)phenyl)propanamido)-2-phenylethyl)boronic acid] | 0.0043 µM | 0.0033 µM
CC(C)(C=C(C#N)C(=O)N1CCC[C@@H]1CNC(=O)N[C@@H](Cc1coc2ccccc12)B(O)O)N1CCC(F)(F)C1 [Example 50, ((R)-2-(benzofuran-3-yl)-1-(3-(((R)-1-(2-cyano-4-(3,3-difluoropyrrolidin-1-yl)-4-methylpent-2-enoyl)pyrrolidin-2-yl)methyl)ureido)ethyl)boronic acid] | 0.004 µM | 1.2 µM
CC(C)(C=C(C#N)C(=O)N1CCC[C@H](NC(=O)N[C@@H](Cc2ccccc2)B(O)O)C1)N1CCC(F)(F)C1 [Example 112, ((R)-1-(3-((S)-1-(2-cyano-4-(3,3-difluoropyrrolidin-1-yl)-4-methylpent-2-enoyl)piperidin-3-yl)ureido)-2-phenylethyl)boronic acid] | 0.143 µM | 2.24 µM
C=CC(=O)N1C[C@@H](F)[C@H](OC(=O)N[C@@H](Cc2ccc(F)cc2)B(O)O)C1 [Example 135, ((R)-1-(((((3R,4R)-1-acryloyl-4-fluoropyrrolidin-3-yl)oxy)carbonyl)amino)-2-(4-fluorophenyl)ethyl)boronic acid] | 0.0182 µM | 3.32 µM
C=C(F)C(=O)N1C2CCC1(COC(=O)N[C@@H](Cc1ccc(F)cc1)B(O)O)CC2 [Example 75, (R)-(1-((((7-(2-fluoroacryloyl)-7-azabicyclo[2.2.1]heptan-1-yl)methoxy)carbonyl)amino)-2-(4-fluorophenyl)ethyl)boronic acid] | 0.129 µM | > 5 µM
CC(C)C=C(C#N)C(=O)N(C)c1cccc(C[C@H](NCC(F)(F)F)C(=O)N[C@@H](Cc2ccccc2)B(O)O)c1 [Example 26, ((R)-1-((S)-3-(3-(2-cyano-N,4-dimethylpent-2-enamido)phenyl)-2-((2,2,2-trifluoroethyl)amino)propanamido)-2-phenylethyl)boronic acid] | 0.011 µM | 0.362 µM
C[C@@H]1CN(C(C)(C)C=C(C#N)C(=O)N2CCCC[C@@H](OC(=O)N[C@@H](Cc3ccccc3)B(O)O)C2)C[C@@H](C)O1 [Example 129] | 0.0027 µM | 0.734 µM
CC(C)(C=C(C#N)C(=O)N1CCC[C@H](OC(=O)N[C@@H](CC2=CCCC2)B(O)O)C1)N1CCOCC1 [Example 121, ((R)-1-(((((S)-1-(2-cyano-4-methyl-4-morpholinopent-2-enoyl)piperidin-3-yl)oxy)carbonyl)amino)-2-(cyclopent-1 en-1-yl)ethyl)boronic acid] | 0.0078 µM | > 5 µM
CC(C)(C=C(C#N)C(=O)N1C[C@@H](F)[C@H](OC(=O)N[C@@H](Cc2ccccc2)B(O)O)C1)N1CCC(F)(F)C1 [Example 113, ((R)-1-(((((3R,4R)-1-(2-cyano-4-(3,3-difluoropyrrolidin-1-yl)-4-methylpent-2-enoyl)-4-fluoropyrrolidin-3-yl)oxy)carbonyl)amino)-2-phenylethyl)boronic acid] | 0.0023 µM | 0.52 µM
CC1(OC(=O)N[C@@H](Cc2ccc(F)cc2)B(O)O)CCCN(C(=O)C(C#N)=CC(C)(C)N2CCC(F)(F)C2)C1 (mixture of isomers) [Example 94, ((1R)-1-((((1-(2-cyano-4-(3,3-difluoropyrrolidin-1-yl)-4-methylpent-2-enoyl)-3-methylpiperidin-3-yl)oxy)carbonyl)amino)-2-(4-fluorophenyl)ethyl)boronic acid] | 0.238 µM | > 5 µM
CC(C)C=C(C#N)C(=O)NCCCC[C@H](NC(=O)[C@H](C)NC(=O)C(C)C)C(=O)N[C@@H](Cc1ccccc1)B(O)O [Example 4, ((R)-1-((S)-6-(2-cyano-4-methylpent-2-enamido)-2-((S)-2-isobutyramidopropanamido)hexanamido)-2-phenylethyl)boronic acid] | 0.014 µM | 0.0237 µM
C[C@@H]1CN(C(C)(C)C=C(C#N)C(=O)N2C3CCC2(COC(=O)N[C@@H](Cc2ccccc2)B(O)O)CC3)C[C@H](C)O1 [Example 114, ((R)-1-((((7-(2-cyano-4-((2S,6R)-2,6-dimethylmorpholino)-4-methylpent-2-enoyl)-7-azabicyclo[2.2.1]heptan-1-yl)methoxy)carbonyl)amino)-2-phenylethyl)boronic acid] | 0.0021 µM | 1.67 µM
C=CC(=O)N1CCCC(C)(OC(=O)N[C@@H](Cc2ccc(F)cc2)B(O)O)C1 (mixture of isomers) [Example 91, ((1R)-1-((((1-acryloyl-3-methylpiperidin-3-yl)oxy)carbonyl)amino)-2-(4-fluorophenyl)ethyl)boronic acid] | > 5 µM | > 5 µM
CC(C)(C=C(C#N)C(=O)N1CCCC[C@@H](OC(=O)N[C@@H](Cc2ccccc2)B(O)O)C1)N1CCOC2(CC2)C1 [Example 133, ((R)-1-(((((R)-1-(2-cyano-4-methyl-4-(4-oxa-7-azaspiro[2.5]octan-7-yl)pent-2-enoyl)azepan-3-yl)oxy)carbonyl)amino)-2-phenylethyl)boronic acid] | 0.0014 µM | 0.942 µM
C=CC(=O)N1CC[C@H]1COC(=O)N[C@@H](Cc1ccccc1)B(O)O [Example 51, ((R)-1-(((((S)-1-acryloylazetidin-2-yl)methoxy)carbonyl)amino)-2-phenylethyl)boronic acid] | 0.256 µM | 1.43 µM
C=CC(=O)N1CC(COC(=O)N[C@@H](Cc2ccccc2)B(O)O)C1 [Example 86, (R)-(1-((((1-acryloylazetidin-3-yl)methoxy)carbonyl)amino)-2-phenylethyl)boronic acid] | 0.0591 µM | 0.218 µM
CC(C)(C=C(C#N)C(=O)N1C2CCC1(COC(=O)N[C@@H](Cc1ccc(F)cc1)B(O)O)CC2)N1CCOCC1 [Example 82, (R)-(1-((((7-(2-cyano-4-methyl-4-morpholinopent-2-enoyl)-7-azabicyclo[2.2.1]heptan-1-yl)methoxy)carbonyl)amino)-2-(4-fluorophenyl)ethyl)boronic acid] | 0.0017 µM | 1.38 µM
CC(C)C=C(C#N)C(=O)NCCCC[C@H](NS(C)(=O)=O)C(=O)N[C@@H](Cc1ccccc1)B(O)O [Example 12, ((R)-1-((S)-6-(2-cyano-4-methylpent-2-enamido)-2-(methylsulfonamido)hexanamido)-2-phenylethyl)boronic acid] | 0.0134 µM | 0.0211 µM
CC1(C)CN(C(C)(C)C=C(C#N)C(=O)N2C3CCC2(COC(=O)N[C@@H](Cc2ccccc2)B(O)O)CC3)CCO1 [Example 119, (R)-(1-((((7-(2-cyano-4-(2,2-dimethylmorpholino)-4-methylpent-2-enoyl)-7-azabicyclo[2.2.1]heptan-1-yl)methoxy)carbonyl)amino)-2-phenylethyl)boronic acid] | 0.001 µM | 0.685 µM
CC(C)C=C(C#N)C(=O)N1CCC[C@@H]1COC[C@H](NCC(F)(F)F)C(=O)N[C@@H](Cc1ccccc1)B(O)O [Example 23, (R)-1-((S)-3-(((R)-1-(2-cyano-4-methylpent-2-enoyl)pyrrolidin-2-yl)methoxy)-2-(2,2,2-trifluoroethylamino)propanamido)-2-phenylethylboronic acid] | 0.035 µM | 0.45 µM
C[C@H]1CN(C(C)(C)C=C(C#N)C(=O)N2CCCC[C@@H](OC(=O)N[C@@H](Cc3ccccc3)B(O)O)C2)CCO1 [Example 130, ((R)-1-(((((R)-1-(2-cyano-4-methyl-4-((S)-2-methylmorpholino)pent-2-enoyl)azepan-3-yl)oxy)carbonyl)amino)-2-phenylethyl)boronic acid] | 0.0028 µM | 2.04 µM
C=CC(=O)N1C2CCC1(COC(=O)N[C@@H](Cc1ccc(F)cc1)B(O)O)CC2 [Example 76, (R)-(1-((((7-acryloyl-7-azabicyclo[2.2.1]heptan-1-yl)methoxy)carbonyl)amino)-2-(4-fluorophenyl)ethyl)boronic acid] | 0.0211 µM | 4.03 µM
CC(C)(C=C(C#N)C(=O)N1CCCC[C@@H](OC(=O)N[C@@H](Cc2ccccc2)B(O)O)C1)N1CCOCC1 (single isomer, unassigned) [Example 103] | 0.0022 µM | 3.18 µM
CC(C)C=C(C#N)C(=O)N(C)c1cccc(C[C@H](NCC(F)(F)F)C(=O)N[C@@H](CC(C)C)B(O)O)c1 [Example 27, ((R)-1-((S)-3-(3-(2-cyano-N,4-dimethylpent-2-enamido)phenyl)-2-((2,2,2-trifluoroethyl)amino)propanamido)-3-methylbutyl)boronic acid] | 0.072 µM | 0.175 µM
